In patent publication US20240139144A1, “COPPER CHELATOR, ANTICANCER AGENT AND PROPHYLACTIC OR THERAPEUTIC AGENT FOR WILSON'S DISEASE” (Murata Manufacturing Co., Ltd., priority 2021, published 2024):

What was measured:
[1] = Evaluation of copper chelating action by LC-MS after addition of CuCl2; format: binding; settings: for copper chelating action: 10 mM compound in methanol, aqueous CuCl2 added to final 100 mM, shaken at 30° C. for 60 minutes, LC-MS; for peak of the ion of the compound (free compound) in the sample in which a copper ion was added / peak of the ion of the complex of the compound and a copper ion in the sample in which a copper ion was added: LC-MS positive mode, CuCl2 100 mM, 30° C., 60 minutes; for peak of the ion of the compound (free compound) in the sample in which a copper ion was added: m/z 379.00 for (1a), m/z 397.00 for (2a); for peak of the ion of the complex of the compound and a copper ion in the sample in which a copper ion was added: m/z 441.00 for (1a), m/z 459.00 for (2a)
Experimental: (Method for Evaluating Copper Chelating Action)
An aqueous CuCl2 solution was added to a methanol solution of 10 mM compound (1a) or 10 mM compound (2a) so as to have a final concentration of 100 mM, and the mixture was shaken at 30° C. for 60 minutes, and then analyzed by LC-MS. A methanol solution of 10 mM compound (la) or 10 mM compound (2a) to which an aqueous CuCl2 solution was not added was also analyzed by LC-MS.
(LC-MS measurement conditions)
Pure water to which 0.1% formic acid was added was used as a solvent A, and acetonitrile was used as a solvent B. The samples were separated on a reversed-phase column (Cosmosil 5.0C 18-MS-II 2.0×100 mm (manufactured by Nacalai Tesque, Inc.)). At this time, the flow rate was set to 0.2 ml/min, and elution was performed in a gradient mode in which the proportion of the solvent B was set to 2% until 2 minutes, and then changed from 2 to 98% from 2 to 15 minutes. The eluted sample was ionized by electrospray ionization method in a positive mode.

gram-positive bacteria = settings: against gram-positive bacteria; cited from earlier work
Candida albicans = settings: against Candida albicans; cited from earlier work

Molecule | copper chelating action [1] | peak of the ion of the compound (free compound) in the sample in which a copper ion was added [1] | peak of the ion of the complex of the compound and a copper ion in the sample in which a copper ion was added [1] | copper chelating action compared between compounds ([1]; comparison between FIGS. 1 and 2 and FIGS. 4 and 5) | antimicrobial activity (gram-positive bacteria) | antimicrobial activity (Candida albicans)
[C-]#[N+][C@@H](Cc1ccc(O)c(-c2cc(C[C@H](NC=O)C(N)=O)ccc2O)c1)C(N)=O [compound (2a)] | has a copper chelating action | small | observed | – | – | –
[C-]#[N+][C@@H](Cc1ccc(O)c(-c2cc(C[C@H]([N+]#[C-])C(N)=O)ccc2O)c1)C(N)=O [compound (1a)] | has a copper chelating action | not observed | observed | stronger than that of the compound (2a) | – | –
hazimycin A | – | – | – | – | antimicrobial activity | antimicrobial activity
